Measurements taken from ChEMBL document CHEMBL1201862, “PubChem BioAssay data set” (2004).
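How tested: cells in 96-well plates exposed to compound for 48 hours at five concentrations. GI50 = concentration required for 50% inhibition of growth.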 The source made the active and inactive calls. No stated cut-off is given here; in the data, active = GI50 up to about 1.1 µM and inactive = higher.

Legend:
Assay in all cases: NCI tumour cell line growth inhibition, 48 h
HL-60 = test system: HL-60
OVCAR-8 = test system: OVCAR-8
OVCAR-4 = test system: OVCAR-4
SK-MEL-2 = test system: SK-MEL-2
Hs-578T = test system: Hs-578T
A549 = test system: A549
SNB-19 = test system: SNB-19
T47D = test system: T47D
SF-268 = test system: SF-268
NCI-H460 = test system: NCI-H460
SN12C = test system: SN12C
HCC 2998 = test system: HCC 2998
NCI/ADR-RES = test system: NCI/ADR-RES
SNB-75 = test system: SNB-75
LOX IMVI = test system: LOX IMVI
KM12 = test system: KM12
HT-29 = test system: HT-29
DU-145 = test system: DU-145
SK-OV-3 = test system: SK-OV-3
MDA-N = test system: MDA-N

SMILES	GI50 (HL-60)	GI50 (OVCAR-8)	GI50 (OVCAR-4)	GI50 (SK-MEL-2)	GI50 (Hs-578T)	GI50 (A549)	GI50 (SNB-19)	GI50 (T47D)	GI50 (SF-268)	GI50 (NCI-H460)	GI50 (SN12C)	GI50 (HCC 2998)	GI50 (NCI/ADR-RES)	GI50 (SNB-75)	GI50 (LOX IMVI)	GI50 (KM12)	GI50 (HT-29)	GI50 (DU-145)	GI50 (SK-OV-3)	GI50 (MDA-N)
C/C(=C\c1ccc2c(c1)OCO2)[N+](=O)[O-]	1.46 µM (inactive)	2.77 µM (inactive)	4.4 µM (inactive)	2.99 µM (inactive)	5.14 µM (inactive)	4.2 µM (inactive)	2.49 µM (inactive)	1.64 µM (inactive)	3.44 µM (inactive)	3.26 µM (inactive)	3.38 µM (inactive)	3.54 µM (inactive)	6.04 µM (inactive)	5.16 µM (inactive)	0.315 µM (active)	1.54 µM (inactive)	2.98 µM (inactive)	2.23 µM (inactive)		
C/C(=N/NC(=S)Nc1ccc(Cl)cc1)c1cccc(/C(C)=N\NC(=S)Nc2ccc(Cl)cc2)n1		1.85 µM (inactive)	13.4 µM (inactive)	5.41 µM (inactive)		5.55 µM (inactive)	9.73 µM (inactive)	30.7 µM (inactive)	23.8 µM (inactive)	3.49 µM (inactive)	10.7 µM (inactive)	12.2 µM (inactive)	2.59 µM (inactive)	7.48 µM (inactive)	4.58 µM (inactive)	3.66 µM (inactive)	10.2 µM (inactive)	26.1 µM (inactive)	7.6 µM (inactive)	17.1 µM (inactive)
CC(=O)OC(CN1CCN(c2ccccn2)CC1)Cn1sc2nc(C)cc(C)c2c1=O (stereo unspecified)	16.8 µM (inactive)	28.7 µM (inactive)	22.4 µM (inactive)	18.3 µM (inactive)	20.7 µM (inactive)	20.6 µM (inactive)	> 100 µM (inactive)	28 µM (inactive)	17.3 µM (inactive)	18.5 µM (inactive)	18.9 µM (inactive)	19.5 µM (inactive)	27 µM (inactive)	16 µM (inactive)	21.3 µM (inactive)	21.4 µM (inactive)	18.6 µM (inactive)	19 µM (inactive)	17.9 µM (inactive)	
N#C/C(=C\c1ccccc1)c1nc(-c2cc3ccccc3oc2=O)cs1	> 100 µM (inactive)	> 100 µM (inactive)	41.5 µM (inactive)	> 100 µM (inactive)	48 µM (inactive)	> 100 µM (inactive)	74.3 µM (inactive)	> 100 µM (inactive)	60 µM (inactive)	> 100 µM (inactive)	> 100 µM (inactive)	> 100 µM (inactive)	> 100 µM (inactive)	39.3 µM (inactive)	> 100 µM (inactive)	75.3 µM (inactive)	> 100 µM (inactive)	> 100 µM (inactive)	72.8 µM (inactive)	
CCOC(=O)NC(OC)(C(F)(F)F)C(F)(F)F	> 100 µM (inactive)	> 100 µM (inactive)	> 100 µM (inactive)		> 100 µM (inactive)	> 100 µM (inactive)	> 100 µM (inactive)		> 100 µM (inactive)	> 100 µM (inactive)		> 100 µM (inactive)	> 100 µM (inactive)	> 100 µM (inactive)	> 100 µM (inactive)		> 100 µM (inactive)	> 100 µM (inactive)	46.9 µM (inactive)	> 100 µM (inactive)
CCOc1ncn(-c2ccc(NC(=S)NC3OC(CO)C(O)C(O)C3O)cc2)n1 (stereo unspecified)	> 100 µM (inactive)	> 100 µM (inactive)	> 100 µM (inactive)			> 100 µM (inactive)	> 100 µM (inactive)	> 100 µM (inactive)	> 100 µM (inactive)	> 100 µM (inactive)	> 100 µM (inactive)	> 100 µM (inactive)		> 100 µM (inactive)	> 100 µM (inactive)	> 100 µM (inactive)	> 100 µM (inactive)	> 100 µM (inactive)	> 100 µM (inactive)	> 100 µM (inactive)
C=CCON(C(=O)OC(C)(C)C)C(C)(C)C	> 100 µM (inactive)	> 100 µM (inactive)	1.55 µM (inactive)	> 100 µM (inactive)	> 100 µM (inactive)	> 100 µM (inactive)	> 100 µM (inactive)	> 100 µM (inactive)	> 100 µM (inactive)	> 100 µM (inactive)		> 100 µM (inactive)	> 100 µM (inactive)	> 100 µM (inactive)	> 100 µM (inactive)	> 100 µM (inactive)	> 100 µM (inactive)	> 100 µM (inactive)	> 100 µM (inactive)	
CCOC(=O)c1c(-c2ccccc2)nc2c(OC)nccn12	> 100 µM (inactive)	> 100 µM (inactive)	> 100 µM (inactive)	> 100 µM (inactive)	> 100 µM (inactive)	> 100 µM (inactive)	> 100 µM (inactive)	25.4 µM (inactive)	> 100 µM (inactive)	> 100 µM (inactive)	> 100 µM (inactive)	> 100 µM (inactive)	> 100 µM (inactive)	> 100 µM (inactive)	> 100 µM (inactive)	> 100 µM (inactive)	> 100 µM (inactive)	> 100 µM (inactive)	> 100 µM (inactive)	
C=CC1CCC[N+]1(CC(=O)OCC)Cc1ccccc1 (stereo unspecified)	> 100 µM (inactive)	> 100 µM (inactive)	> 100 µM (inactive)			> 100 µM (inactive)	> 100 µM (inactive)	> 100 µM (inactive)	> 100 µM (inactive)	> 100 µM (inactive)	> 100 µM (inactive)	> 100 µM (inactive)	> 100 µM (inactive)	> 100 µM (inactive)			> 100 µM (inactive)	> 100 µM (inactive)	> 100 µM (inactive)	> 100 µM (inactive)
COc1ccc(-c2nc3ncccn3c2-c2ccc(S(C)(=O)=O)cc2)cc1	> 100 µM (inactive)	> 100 µM (inactive)	> 100 µM (inactive)	> 100 µM (inactive)	> 100 µM (inactive)	> 100 µM (inactive)	> 100 µM (inactive)		35.2 µM (inactive)	66.4 µM (inactive)	> 100 µM (inactive)		> 100 µM (inactive)	> 100 µM (inactive)	> 100 µM (inactive)	> 100 µM (inactive)	> 100 µM (inactive)	> 100 µM (inactive)	90.4 µM (inactive)	
COc1cc(OC)c2nc(C)c3c(c2c1)NCC3	15.7 µM (inactive)	4.51 µM (inactive)	3.63 µM (inactive)	9.42 µM (inactive)	2.56 µM (inactive)	11.8 µM (inactive)	12.6 µM (inactive)		5.92 µM (inactive)	3.33 µM (inactive)	4.48 µM (inactive)	7.83 µM (inactive)	18.4 µM (inactive)	12.4 µM (inactive)	3.25 µM (inactive)		4.05 µM (inactive)	21.6 µM (inactive)	14.3 µM (inactive)	8.09 µM (inactive)
CC(C)c1cc(=O)[nH]c2cc(N)ccc12		> 100 µM (inactive)	> 100 µM (inactive)	> 100 µM (inactive)		> 100 µM (inactive)	> 100 µM (inactive)	> 100 µM (inactive)		> 100 µM (inactive)	> 100 µM (inactive)	> 100 µM (inactive)	> 100 µM (inactive)	86.9 µM (inactive)	> 100 µM (inactive)	> 100 µM (inactive)	> 100 µM (inactive)	> 100 µM (inactive)		> 100 µM (inactive)
NNC(=O)c1nn[nH]c1SSc1[nH]nnc1C(=O)NN	> 100 µM (inactive)	> 100 µM (inactive)	> 100 µM (inactive)	> 100 µM (inactive)	> 100 µM (inactive)	> 100 µM (inactive)	> 100 µM (inactive)		> 100 µM (inactive)	> 100 µM (inactive)	> 100 µM (inactive)	> 100 µM (inactive)	> 100 µM (inactive)	> 100 µM (inactive)	> 100 µM (inactive)	> 100 µM (inactive)	> 100 µM (inactive)	> 100 µM (inactive)	> 100 µM (inactive)	> 100 µM (inactive)
O=C(OCCOCBr)c1ccccc1	> 100 µM (inactive)	> 100 µM (inactive)	> 100 µM (inactive)	> 100 µM (inactive)		> 100 µM (inactive)	> 100 µM (inactive)		> 100 µM (inactive)	> 100 µM (inactive)	> 100 µM (inactive)	> 100 µM (inactive)		> 100 µM (inactive)	> 100 µM (inactive)	> 100 µM (inactive)	> 100 µM (inactive)		> 100 µM (inactive)	
O=S(=O)(O)c1ccc(/N=N/c2ccc3c(S(=O)(=O)O)cccc3c2O)c2ccccc12		> 100 µM (inactive)	> 100 µM (inactive)	> 100 µM (inactive)	> 100 µM (inactive)	> 100 µM (inactive)	> 100 µM (inactive)	> 100 µM (inactive)	> 100 µM (inactive)		> 100 µM (inactive)		> 100 µM (inactive)	> 100 µM (inactive)	> 100 µM (inactive)	> 100 µM (inactive)	> 100 µM (inactive)	> 100 µM (inactive)	> 100 µM (inactive)	> 100 µM (inactive)
CCN(CC)CC1CCCCN1CC(=O)N1c2ccc(Br)cc2C(=O)Nc2cccnc21 (stereo unspecified)	> 100 µM (inactive)	> 100 µM (inactive)	> 100 µM (inactive)	> 100 µM (inactive)	> 100 µM (inactive)	> 100 µM (inactive)	> 100 µM (inactive)	> 100 µM (inactive)	> 100 µM (inactive)	> 100 µM (inactive)	> 100 µM (inactive)	> 100 µM (inactive)		12.3 µM (inactive)	> 100 µM (inactive)	> 100 µM (inactive)	> 100 µM (inactive)	> 100 µM (inactive)	> 100 µM (inactive)	> 100 µM (inactive)
